Assay results from the supplement of paper PMC11061612.

Legend:
Assay in all cases: combination Emax (second highest fraction inhibited in the dose matrix, 72 h); higher = more inhibition; extreme values may be limits of the assay
[1] = test system: BL-41 (Burkitt's Lymphoma)
Outline: (§1)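 Cell lines grown in DMEM/F12 or RPMI with 10% FBS were plated in 1536-well plates and held 24 hours at 37°C, 5% CO2 before 72 hours of exposure to two-drug dose matrices, with DMSO typically at 0.2%. CellTiter-Glo 2.0 luminescence gave viability, which was converted to inhibition. Vehicle wells were set to 0 and blank wells to 1. Combination Emax is the second-highest inhibition in the matrix, and Bliss excess is the observed combination effect minus the expected EA + EB − EA·EB, where EA and EB are the single-agent effects.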

[2] = test system: CAMA-1 (Breast Carcinoma)
Outline: as §1

CHP-212 (Neuroblastoma) = test system: CHP-212 (Neuroblastoma)
Outline: as §1

[3] = test system: DiFi (Colorectal Carcinoma)
Outline: as §1

ES8 (Ewing's Sarcoma) = test system: ES8 (Ewing's Sarcoma)
Outline: as §1

[4] = test system: GR-ST (B-Lymphoblastic Leukemia)
Outline: as §1

[5] = test system: HDQ-P1 (Breast Carcinoma)
Outline: as §1

[6] = test system: HL-60 (Acute Myeloid Leukemia)
Outline: as §1

[7] = test system: K-562 (Chronic Myelogenous Leukemia)
Outline: as §1

[8] = test system: KARPAS-45 (T-Lymphoblastic Leukemia)
Outline: as §1

[9] = test system: KM12 (Colorectal Carcinoma)
Outline: as §1

[10] = test system: MKN28 (Gastric Carcinoma)
Outline: as §1

[11] = test system: MS751 (Cervical Carcinoma)
Outline: as §1

[12] = test system: NCI-H1792 (Lung Adenocarcinoma)
Outline: as §1

[13] = test system: NCI-H847 (Small Cell Lung Carcinoma)
Outline: as §1

[14] = test system: SR (Other Blood Carcinomas)
Outline: as §1

[15] = test system: SU-DHL-8 (B-Cell Non-Hodgkin's Lymphoma)
Outline: as §1

[16] = test system: SW837 (Colorectal Carcinoma)
Outline: as §1

[17] = test system: TE-6 (Esophageal Squamous Cell Carcinoma)
Outline: as §1

WM-115 (Melanoma) = test system: WM-115 (Melanoma)
Outline: as §1

Structure (SMILES)	combination Emax [1]	combination Emax [2]	combination Emax (CHP-212 (Neuroblastoma))	combination Emax [3]	combination Emax (ES8 (Ewing's Sarcoma))	combination Emax [4]	combination Emax [5]	combination Emax [6]	combination Emax [7]	combination Emax [8]	combination Emax [9]	combination Emax [10]	combination Emax [11]	combination Emax [12]	combination Emax [13]	combination Emax [14]	combination Emax [15]	combination Emax [16]	combination Emax [17]	combination Emax (WM-115 (Melanoma))
COc1cccc(OCCCN)c1-c1cc(Nc2cnc(C#N)cn2)n[nH]1 [Prexasertib] + O=C(c1cc(Cc2n[nH]c(=O)c3ccccc23)ccc1F)N1CCN(C(=O)C2CC2)CC1 [Olaparib] (first compound max 1 µM, 7x7, partner max 10 µM)	1	0.37	0.756	0.924	0.906	0.808	0.702	0.961	0.891	0.979	0.756	0.46	0.465	0.84	1	0.996	0.943	0.645	0.476	0.556
CC1(C)CCC(CN2CCN(c3ccc(C(=O)NS(=O)(=O)c4ccc(NCC5CCOCC5)c([N+](=O)[O-])c4)c(Oc4cnc5[nH]ccc5c4)c3)CC2)=C(c2ccc(Cl)cc2)C1 [Venetoclax] + COc1cc(Nc2ncc3c(n2)-c2ccc(Cl)cc2C(c2c(F)cccc2OC)=NC3)ccc1C(=O)O [Alisertib] (first compound max 1 µM, 7x7, partner max 10 µM)	0.978	0.341	0.855	0.559	0.962	0.631	0.41	0.923	0.693	0.982	0.598	0.245	0.724	0.65	1	0.966	0.83	0.308	0.527	0.379
CN(C)CCCOc1ccc(-c2ccc3ncc4c(c3c2)n(C2CCOCC2)c(=O)n4C)cn1 [AZD0156] + CCN(CCO)CCCOc1ccc2c(Nc3cc(CC(=O)Nc4cccc(F)c4)[nH]n3)ncnc2c1 [AZD2811] (first compound max 1 µM, 7x7, partner max 1 µM)	0.744	0.14	0.803	0.416	1	0.276	0.211	0.832	0.23	0.919	0.0745	0.135	0.326	0.147	0.949	0.849	0.253	0.0741	0.236	0.183
Cc1cc2ncnn2cc1Nc1ncc2c(n1)n(C1CCOCC1)c(=O)n2C [AZD7648] + O=C(c1cc(Cc2n[nH]c(=O)c3ccccc23)ccc1F)N1CCN(C(=O)C2CC2)CC1 [Olaparib] (first compound max 10 µM, 7x7, partner max 10 µM)	0.14	0.109	0.529	0.258	0.814	0.472	0.41	0.228	0.176	0.177	0.21	0.103	0.197	0.322	0.853	0.514	0.448	0.0487	0.328	0.229
COc1cccc2c1C(=O)c1c(O)c3c(c(O)c1C2=O)C[C@@](O)(C(=O)CO)C[C@@H]3O[C@H]1C[C@H](N)[C@H](O)[C@H](C)O1 [Doxorubicin] + Cc1cc2ncnn2cc1Nc1ncc2c(n1)n(C1CCOCC1)c(=O)n2C [AZD7648] (first compound max 1 µM, 7x7, partner max 10 µM)	1	0.469	0.782	0.701	0.935	0.69	0.682	0.994	0.823	0.337	0.936	0.503	0.891	0.923	0.961	0.994	0.943	0.516	0.322	0.678
C[C@@H]1COCCN1c1cc(C2([S@](C)(=N)=O)CC2)nc(-c2ccnc3[nH]ccc23)n1 [AZD6738] + O=C(c1cc(Cc2n[nH]c(=O)c3ccccc23)ccc1F)N1CCN(C(=O)C2CC2)CC1 [Olaparib] (first compound max 10 µM, 7x7, partner max 10 µM)	1	0.322	0.795	0.775	0.895	0.803	0.512	0.619	0.811	0.832	0.615	0.484	0.395	0.707	0.978	0.97	0.888	0.343	0.498	0.518
C=CCn1c(=O)c2cnc(Nc3ccc(N4CCN(C)CC4)cc3)nc2n1-c1cccc(C(C)(C)O)n1 [AZD1775] + C[C@@H]1COCCN1C2=NC(=NC(=C2)C3(CC3)[S@](=N)(=O)C)C4=C5C=CNC5=NC=C4 [AZD6738] (first compound max 1 µM, partner max 10 µM)	1	0.46	0.823	0.895	0.905	0.78	0.76	0.893	0.934	1	0.852	0.695	0.428	0.866	1	1	0.903	0.636	0.669	0.595
Cc1c2c(nn1C)CSCc1cc(n(C)n1)CSc1cc(c3ccccc3c1)OCCCc1c(C(=O)O)n(C)c3c-2c(Cl)ccc13 [AZD5991] + CC1(C)CCC(CN2CCN(c3ccc(C(=O)NS(=O)(=O)c4ccc(NCC5CCOCC5)c([N+](=O)[O-])c4)c(Oc4cnc5[nH]ccc5c4)c3)CC2)=C(c2ccc(Cl)cc2)C1 [Venetoclax] (first compound max 1 µM, 7x7, partner max 1 µM)	1	0.934	0.835	0.624	0.864	0.124	0.216	1	0.226	1	0.173	0.126	0.812	0.379	0.98	0.964	0.861	0.184	0.677	0.59
Cc1c2c(nn1C)CSCc1cc(n(C)n1)CSc1cc(c3ccccc3c1)OCCCc1c(C(=O)O)n(C)c3c-2c(Cl)ccc13 [AZD5991] + Cc1cc2ncnn2cc1Nc1ncc2c(n1)n(C1CCOCC1)c(=O)n2C [AZD7648] (first compound max 1 µM, 7x7, partner max 10 µM)	1	0.742	0.831	0.319	0.455	0.464	0.257	1	0.182	0.936	0.208	0.25	0.829	0.441	0.877	0.984	0.684	0.128	0.683	0.357
Cc1c2c(nn1C)CSCc1cc(n(C)n1)CSc1cc(c3ccccc3c1)OCCCc1c(C(=O)O)n(C)c3c-2c(Cl)ccc13 [AZD5991] + C[C@@H](Nc1cc(F)cc(F)c1)c1cc(C(=O)N(C)C)cc2c(=O)cc(N3CCOCC3)oc12 [AZD8186] (first compound max 1 µM, 7x7, partner max 3 µM)	1	0.98	0.882	0.35	0.613	0.257	0.237	1	0.389	0.99	0.205	0.232	0.851	0.441	0.792	0.954	0.688	0.188	0.677	0.656
CN(CCO)CC[C@H](CSc1ccccc1)Nc1ccc(S(=O)(=O)NC(=O)c2ccc(N3CCC([C@@H](O)c4ccccc4-c4ccc(Cl)cc4)CC3)cc2)cc1S(=O)(=O)C(F)(F)F [AZD4320] + CCN(CCO)CCCOc1ccc2c(Nc3cc(CC(=O)Nc4cccc(F)c4)[nH]n3)ncnc2c1 [AZD2811] (first compound max 1 µM, 7x7, partner max 1 µM)	0.723	0.616	0.758	0.882	1	0.151	0.849	0.958	0.333	1	0.173	0.184	0.348	0.113	1	0.938	1	0.508	0.524	0.453
CCc1c2c(nc3ccc(O)cc13)-c1cc3c(c(=O)n1C2)COC(=O)[C@]3(O)CC [SN-38] + CN(C)CCCOc1ccc(-c2ccc3ncc4c(c3c2)n(C2CCOCC2)c(=O)n4C)cn1 [AZD0156] (first compound max 0.3 µM, 7x7, partner max 1 µM)	1	0.208	0.747	0.669	0.984	0.749	0.702	0.968	0.752	0.305	0.716	0.451	0.883	0.757	0.976	0.994	0.992	0.343	0.313	0.43
